Measurements taken from patent US20250345492A1, “AN ANTIBACTERIAL POLYPEPTIDE COMPOUND, A MEDICAL DEVICE, HYDROGEL AND USE THEREOF” (priority 2020, published 2025).
In brackets after ≈: the same amount, converted by molar mass. Like-named read-outs stand apart in the source and are kept apart here. Ends that are not written are not given here. Peptide text beside a SMILES is read from it.

Legend:
Acute toxicity in mice = assay: Acute toxicity in mice; set-up: species or system Kunming mice; settings: mouse, in vivo, ip, intraperitoneal injection, Karber method
Experimental: Acute toxicity of the compounds was determined by measuring the acute toxicity in mice with the compounds.
Taking compounds 2, 8, 9, 13 and 15 of the present invention as examples, […]. The mice used in this test were Kunming mice, which were placed in constant-temperature environment (22±1° C.) and could freely obtain water and food. Simply, 132 healthy Kunming mice were randomly divided into 11 groups, with 12 mice in each group (half male and half female), wherein, 5 groups were intraperitoneally injected with 0.2 ml of the compounds of different doses (100-1000 mg/kg), and the control group was intraperitoneally injected with normal saline. In this experiment, melittin was used as a reference control, and the other 5 groups were intraperitoneally injected with melittin of different doses (10-32 mg/kg). The state of mice was observed and recorded after 2 hours of administration, and then observed twice a day for 14 days, and the survival rates of the mice were recorded.

[1] = system: human cervical cancer cell Hela; assay: Cytotoxicity, MTT colorimetry; assay type: cell-based
Experimental: (§1) For cytotoxicity determination, the MTT colorimetry was used to evaluate the effects of the compounds on the proliferation of human cervical cancer cell Hela, human embryonic renal epithelial cell HEK293 and mouse mononuclear macrophage RAW264.7.
(§2) Taking compounds 2, 8, 9, 13 and 15 of the present invention as examples, the cytotoxicity of the antibacterial polypeptide compounds was analyzed. Three cell lines were employed for the present invention, namely human cervical cancer cell Hela, human embryonic renal epithelial cell HEK293 and mouse mononuclear macrophage RAW264.7. Hela cells were cultured in RPMI 1640 medium with 10% newborn calf serum, HEK293 cells and RAW264.7 cells were cultured in DMEM medium with 10% fetal bovine serum. Simply, cells (1×10^4 cells/well) were inoculated to a 96-well plate and incubated in an incubator set to 5% CO2 at 37° C. After 24 hours, compounds of different concentrations were added and incubated in the 5% CO2 incubator. After 24 hours, 20 μL of MTT solution with a concentration of 5 mg/mL was added to each well and incubated for 4 hours. After that, the medium was removed with a pipet, and 150 μL of DMSO added to dissolve the purple-blue formazan crystals. The solution was shaken in an oscillator for 5 mins before detecting the absorbance value at 570 nm using the ELISA reader, and then the survival rate was calculated with the formula: (OD dosing group/OD control group)×100% (n=3).

[2] = system: mouse mononuclear macrophage RAW264.7; assay: Cytotoxicity, MTT colorimetry; assay type: cell-based
Experimental: as §1, §2

[3] = system: human embryonic renal epithelial cell HEK293; assay: Cytotoxicity, MTT colorimetry; assay type: cell-based
Experimental: as §1, §2

[4] = system: E-5b, clinical isolated drug-resistant strain ESBL; settings: strain E-5b (ESBL)
Source text: (§3) With respect to the determination of antibacterial activity and antifungal activity of the antibacterial polypeptide compounds, the bacterial strains employed included: E. coli (ATCC 25922), E. coli (ATCC 43837), Pseudomonas aeruginosa (ATCC 27853), Klebsiella pneumoniae (ATCC 700603), Cronobacter sakazakii (ATCC 29544), Staphylococcus aureus (ATCC 29213), Bacillus subtilis (ATCC 23857) and Staphylococcus epidermidis (ATCC 12228); and the fungal strains employed included Candida albicans (ATCC 14053), Candida glabrata (ATCC 2001), Candida parapsilosis (ATCC 22019), Candida tropicalis (ATCC 750) and Candida krusei (ATCC 6258), all of which were standard strains from American Type Culture Collection. In addition, drug-resistant strains S-1a, S-2a, S-3a, S-4a, E-1b, E-2b, E-3b, E-4b, E-5b, P-1c, P-2c, P-3c, P-4c, P-5c, and clinically isolated fungal strains Candida glabrata 2-1 and Candida albicans 14-1, 14-2 and 14-3 were employed, all which were clinically isolated.
(§4) Simply, a proper amount of the cryopreserved bacterium or fungus was added to fresh MH/SD medium, and cultured on a shaker overnight at 180 rpm at 37° C. The obtained cells were seeded again and cultured on a shaker for 4-5 hours to obtain cells in logarithmic phase. The resulting cells were added to a 96-well plate (1×10^5 CFU/ml, 100 μL/well), and then 100 μL of polypeptide with different concentrations (1-256 μM) twice the final concentrations was added to corresponding well according to the 2-fold serial dilution method. The fresh medium was used as a negative control, which was prepared in triplicate for each concentration. After dosing, the 96-well plate was placed in an incubator at constant 37° C. and humidity for 12 hours to observe the results. According to naked eye observations, the concentration of the compound in the first transparent well following the turbid wells was recorded as the MIC of the compound, namely, the MIC value of the compound to the bacterium or fungus.

C. albicans ATCC14053 = system: C. albicans ATCC14053
Source text: as §3, §4

[5] = system: P-3c, clinical isolated drug-resistant strain PA; settings: strain P-3c (PA)
Source text: as §3, §4

[6] = system: Staphylococcus aureus (ATCC 29213)
Source text: as §3, §4

[7] = system: P-1c, clinical isolated drug-resistant strain PA; settings: strain P-1c (PA)
Source text: as §3, §4

C. glabrata ATCC22019 = system: C. glabrata ATCC22019
Source text: as §3, §4

[8] = system: E-4b, clinical isolated drug-resistant strain ESBL; settings: strain E-4b (ESBL)
Source text: as §3, §4

[9] = system: E-1b, clinical isolated drug-resistant strain ESBL; settings: strain E-1b (ESBL)
Source text: as §3, §4

[10] = system: P-2c, clinical isolated drug-resistant strain PA; settings: strain P-2c (PA)
Source text: as §3, §4

[11] = system: Pseudomonas aeruginosa (ATCC 27853); settings: standard strain
Source text: as §3, §4

[12] = system: S-1a, clinical isolated drug-resistant strain MRSA; settings: strain S-1a (MRSA)
Source text: as §3, §4

C. krusei ATCC6258 = system: C. krusei ATCC6258
Source text: as §3, §4

[13] = system: P-5c, clinical isolated drug-resistant strain PA; settings: strain P-5c (PA)
Source text: as §3, §4

[14] = system: S-3a, clinical isolated drug-resistant strain MRSA; settings: strain S-3a (MRSA)
Source text: as §3, §4

[15] = system: Staphylococcus epidermidis (ATCC 12228)
Source text: as §3, §4

[16] = system: Cronobacter sakazakii (ATCC 29544)
Source text: as §3, §4

[17] = system: S-2a, clinical isolated drug-resistant strain MRSA; settings: strain S-2a (MRSA)
Source text: as §3, §4

E. coli (ATCC 25922) = system: E. coli (ATCC 25922)
Source text: as §3, §4

C. tropicalis ATCC750 = system: C. tropicalis ATCC750
Source text: as §3, §4

[18] = system: Bacillus subtilis (ATCC 23857)
Source text: as §3, §4

[19] = system: E-3b, clinical isolated drug-resistant strain ESBL; settings: strain E-3b (ESBL)
Source text: as §3, §4

C. parapsilosis ATCC2001 = system: C. parapsilosis ATCC2001
Source text: as §3, §4

[20] = system: P-4c, clinical isolated drug-resistant strain PA; settings: strain P-4c (PA)
Source text: as §3, §4

[21] = system: S-4a, clinical isolated drug-resistant strain MRSA; settings: strain S-4a (MRSA)
Source text: as §3, §4

[22] = system: E-2b, clinical isolated drug-resistant strain ESBL; settings: strain E-2b (ESBL)
Source text: as §3, §4

Compound	LD50 (Acute toxicity in mice)	MIC [4]	MIC [5]	MIC [7]	MIC [8]	MIC [9]	MIC [10]	MIC P. aerugmosa ATCC27853 [11]	MIC [12]	MIC [13]	MIC [14]	MIC [17]	MIC [19]	MIC [20]	MIC [21]	MIC [22]	effect on proliferation (inhibitory activity) [1]	effect on proliferation (inhibitory activity) [2]	effect on proliferation (inhibitory activity) [3]	MIC C. albicans ATCC14053 (C. albicans ATCC14053; ATCC14053)	other results
CC(C)C[C@H](NC(=O)[C@H](CCCCN)NC(=O)[C@H](CC(C)C)NC(=O)[C@H](CO)NC(=O)[C@H](CC(C)C)NC(=O)[C@H](CCCN)NC(=O)[C@H](Cc1ccccc1)NC(=O)[C@@H]1CCCN1)C(N)=O [Compound 2, Pro-Phe-Orn-Leu-Ser-Leu-Lys-Leu-NH2] (HELM PEPTIDE1{P.F.[Orn].L.S.L.K.L.[am]}$$$$V2.0)	> 1000 mg/kg	8 µM (≈ 7.44 µg/mL)	8 µM (≈ 7.44 µg/mL)	8 µM (≈ 7.44 µg/mL)	8 µM (≈ 7.44 µg/mL)	16 µM (≈ 14.9 µg/mL)	8 µM (≈ 7.44 µg/mL)	8 µM (≈ 7.44 µg/mL)	64 µM (≈ 59.5 µg/mL)	8 µM (≈ 7.44 µg/mL)	64 µM (≈ 59.5 µg/mL)	64 µM (≈ 59.5 µg/mL)	16 µM (≈ 14.9 µg/mL)	8 µM (≈ 7.44 µg/mL)	64 µM (≈ 59.5 µg/mL)	16 µM (≈ 14.9 µg/mL)					effect on proliferation (inhibitory activity) ([1]; Hela cell line, MTT, 24 hours): no inhibitory activity; effect on proliferation (inhibitory activity) ([2]; RAW 264.7 cell line, MTT, 24 hours): no inhibitory activity; effect on proliferation (inhibitory activity) ([3]; HEK293 cell line, MTT, 24 hours): no inhibitory activity; MIC C. albicans ATCC14053 (C. albicans ATCC14053; fungus): 32 µM (≈ 29.8 µg/mL); MIC S. aureus ATCC29213 ([6]; standard strain): 64 µM (≈ 59.5 µg/mL); MIC C. glabrata ATCC22019 (C. glabrata ATCC22019; fungus): 32 µM (≈ 29.8 µg/mL); MIC C. krusei ATCC6258 (C. krusei ATCC6258; fungus): 32 µM (≈ 29.8 µg/mL); MIC S. epidermidis ATCC12228 ([15]; standard strain): 16 µM (≈ 14.9 µg/mL); MIC C. sakazakii ATCC29544 ([16]; standard strain): 32 µM (≈ 29.8 µg/mL); MIC C. coli ATCC25922 (E. coli (ATCC 25922); standard strain): 16 µM (≈ 14.9 µg/mL); MIC C. tropicalis ATCC750 (C. tropicalis ATCC750; fungus): 32 µM (≈ 29.8 µg/mL); MIC B. subtilis ATCC23857 ([18]; standard strain): 16 µM (≈ 14.9 µg/mL); MIC C. parapsilosis ATCC2001 (C. parapsilosis ATCC2001; fungus): 16 µM (≈ 14.9 µg/mL)
CC[C@H](C)[C@H](NC(=O)CN)C(=O)NCC(=O)N[C@@H](C)C(=O)N[C@H](C(=O)N[C@@H](CC(C)C)C(=O)N[C@@H](CCCCN)C(=O)N[C@H](C(=O)N[C@@H](CC(C)C)C(=O)N[C@H](C(=O)N[C@H](C(=O)NCC(=O)N[C@@H](CC(C)C)C(=O)N1CCC[C@H]1C(=O)N[C@@H](C)C(=O)N[C@@H](CC(C)C)C(=O)N[C@H](C(=O)N[C@@H](CO)C(=O)N[C@@H](Cc1c[nH]c2ccccc12)C(=O)N[C@H](C(=O)N[C@@H](CCCCN)C(=O)N[C@@H](CCCNC(=N)N)C(=O)N[C@@H](CCCCN)C(=O)N[C@@H](CCCNC(=N)N)C(=O)N[C@@H](CCC(N)=O)C(=O)N[C@@H](CCC(N)=O)C(N)=O)[C@@H](C)CC)[C@@H](C)CC)[C@@H](C)O)[C@@H](C)O)C(C)C)C(C)C [melittin magainin, melittin, reference compound]																					LD50 at 14 days (Acute toxicity in mice; both sexes, Kunming): 20 mg/kg
PWKLSLHL-NH2 [Compound 8]	> 1000 mg/kg	16 µM	8 µM	16 µM	16 µM	16 µM	8 µM	16 µM	64 µM	8 µM	64 µM	64 µM	16 µM	8 µM	64 µM	16 µM	no inhibitory activity	no inhibitory activity	no inhibitory activity	16 µM	MIC S. aureus ATCC29213 ([6]; ATCC 29213): 64 µM; MIC C. glabrata ATCC22019 (C. glabrata ATCC22019; ATCC22019): 16 µM; MIC C. krusei ATCC6258 (C. krusei ATCC6258; ATCC6258): 32 µM; MIC S. epidermidis ATCC12228 ([15]; ATCC 12228): 32 µM; MIC C. sakazakii ATCC29544 ([16]; ATCC 29544): 16 µM; MIC C. coli ATCC25922 (E. coli (ATCC 25922); ATCC 25922): 16 µM; MIC C. tropicalis ATCC750 (C. tropicalis ATCC750; ATCC750): 16 µM; MIC B. subtilis ATCC23857 ([18]; ATCC 23857): 16 µM; MIC C. parapsilosis ATCC2001 (C. parapsilosis ATCC2001; ATCC2001): 16 µM
PWRLRLHL-NH2 [Compound 13]	> 1000 mg/kg	4 µM	4 µM	8 µM	8 µM	8 µM	4 µM	4 µM	32 µM	4 µM	32 µM	32 µM	4 µM	4 µM	32 µM	8 µM	no inhibitory activity	no inhibitory activity	no inhibitory activity	32 µM	MIC S. aureus ATCC29213 ([6]; ATCC 29213): 32 µM; MIC C. glabrata ATCC22019 (C. glabrata ATCC22019; ATCC22019): 8 µM; MIC C. krusei ATCC6258 (C. krusei ATCC6258; ATCC6258): 32 µM; MIC S. epidermidis ATCC12228 ([15]; ATCC 12228): 16 µM; MIC C. sakazakii ATCC29544 ([16]; ATCC 29544): 8 µM; MIC C. coli ATCC25922 (E. coli (ATCC 25922); ATCC 25922): 8 µM; MIC C. tropicalis ATCC750 (C. tropicalis ATCC750; ATCC750): 8 µM; MIC B. subtilis ATCC23857 ([18]; ATCC 23857): 8 µM; MIC C. parapsilosis ATCC2001 (C. parapsilosis ATCC2001; ATCC2001): 8 µM
